Experimental data taken from the CheMixHub viscosity set.
Values joined by “and” are separate entries in the source; they are usually repeats but may differ in a detail not shown here. Equal values may be shown once. ± gives the uncertainty stated by the source.

Assay: xn = mol fraction of the nth substance listed

NCCNCCO.O=S(=O)([N-]S(=O)(=O)C(F)(F)F)C(F)(F)F.[Li+] + O
323.15 K, 101 kPa
Conditions	viscosity [mPa·s]
x1 = 0.0304	1.63 ± 0.11
x1 = 0.06	3.61 ± 0.2
x1 = 0.0997	7.57 ± 0.41
x1 = 0.2003	27.72 ± 0.97
x1 = 0.3009	65.11 ± 2.3
x1 = 0.3955	114.4 ± 7.3
x1 = 0.4975	184.4 ± 18
x1 = 0.599	272.2 ± 33
x1 = 0.7014	372.3 ± 54
x1 = 0.8015	486.8 ± 80
x1 = 0.8978	605.3 ± 110

O=C([O-])CC(O)(CC(=O)[O-])C(=O)[O-].[Li+].[Li+].[Li+] + O
viscosity [mPa·s], 101 kPa
Conditions	298.15 K	308.15 K	318.15 K
x1 = 0.004	1.118 ± 0.053	0.9013 ± 0.043	0.7487 ± 0.035
x1 = 0.007	1.39 ± 0.065	1.112 ± 0.052	0.9146 ± 0.043
x1 = 0.01	1.784 ± 0.084	1.415 ± 0.067	1.155 ± 0.054

O=C[C@H](O)[C@@H](O)[C@@H](O)CO + O
viscosity, 101 kPa
Conditions	293.15 K	298.15 K	303.15 K	308.15 K	313.15 K	318.15 K
x1 = 0.0031	1.059 ± 0.013 mPa·s	–	0.8425 ± 0.011 mPa·s	0.7555 ± 0.0094 mPa·s	0.6857 ± 0.0085 mPa·s	0.6277 ± 0.0078 mPa·s
x1 = 0.006	1.122 ± 0.024 mPa·s and 1.122 ± 0.014 mPa·s (2×)	0.9982 ± 0.021 mPa·s and 0.9982 ± 0.012 mPa·s (2×)	0.8927 ± 0.019 mPa·s and 0.8927 ± 0.011 mPa·s (2×)	0.7947 ± 0.017 mPa·s and 0.7947 ± 0.0098 mPa·s and 0.7947 ± 0.0099 mPa·s	0.7187 ± 0.015 mPa·s and 0.7187 ± 0.0089 mPa·s (2×)	0.6585 ± 0.014 mPa·s and 0.6585 ± 0.0081 mPa·s and 0.6585 ± 0.0082 mPa·s
x1 = 0.0063	1.122 ± 0.014 mPa·s	0.9982 ± 0.013 mPa·s	0.8927 ± 0.011 mPa·s	0.7947 ± 0.01 mPa·s	0.7187 ± 0.009 mPa·s	0.6585 ± 0.0082 mPa·s
x1 = 0.013	1.232 ± 0.026 mPa·s and 1.232 ± 0.015 mPa·s (2×)	–	0.9886 ± 0.021 mPa·s and 0.9886 ± 0.012 mPa·s (2×)	0.8863 ± 0.019 mPa·s and 0.8863 ± 0.011 mPa·s (2×)	0.7996 ± 0.017 mPa·s and 0.7996 ± 0.0099 mPa·s (2×)	0.7229 ± 0.015 mPa·s and 0.7229 ± 0.0089 mPa·s and 0.7229 ± 0.009 mPa·s

O=S(=O)(O)CC(O)CN1CCOCC1 (stereo not drawn) + O
viscosity [mPa·s], 101.3 kPa
Conditions	x1 = 0.00371	x1 = 0.007201	x1 = 0.009661	x1 = 0.01079	x1 = 0.01403	x1 = 0.01784
298.15 K	0.942 ± 0.038	1.033 ± 0.042	1.078 ± 0.044	1.117 ± 0.045	1.197 ± 0.049	1.303 ± 0.053
308.15 K	0.761 ± 0.031	0.833 ± 0.034	0.871 ± 0.035	0.901 ± 0.037	0.966 ± 0.039	1.051 ± 0.043
318.15 K	0.631 ± 0.026	0.691 ± 0.028	0.721 ± 0.029	0.746 ± 0.03	0.798 ± 0.032	0.866 ± 0.035

CC(N)=O + O=C1CCCCCN1
101 kPa, x2 = 0.5
Conditions	viscosity [mPa·s]
303.1 K	66.67 ± 1
313.1 K	32.87 ± 0.56
323.1 K	22.69 ± 0.31

CC(=O)N(C)C + OCCO
308.15 K, 101 kPa
Conditions	viscosity [mPa·s]
x2 = 0.1632	1.166 ± 0.11
x2 = 0.2752	1.388 ± 0.13
x2 = 0.4068	1.611 ± 0.15
x2 = 0.5162	2.416 ± 0.22
x2 = 0.6269	3.622 ± 0.32
x2 = 0.7125	4.662 ± 0.41
x2 = 0.7974	5.882 ± 0.49
x2 = 0.8652	7.289 ± 0.58
x2 = 0.9339	8.916 ± 0.68

O=[N+]([O-])c1ccccc1O + c1ccc2ncccc2c1
viscosity [mPa·s], 101 kPa
Conditions	303.15 K	313.15 K
x1 = 0.1011	3.361 ± 0.033	2.66 ± 0.026
x1 = 0.2021	3.772 ± 0.037	2.928 ± 0.028
x1 = 0.2913	4.125 ± 0.041	3.16 ± 0.031
x1 = 0.3982	4.495 ± 0.045	3.375 ± 0.033
x1 = 0.4731	4.68 ± 0.05	3.465 ± 0.034
x1 = 0.5638	4.72 ± 0.05	3.47 ± 0.034
x1 = 0.6538	4.595 ± 0.046	3.41 ± 0.034
x1 = 0.7624	4.355 ± 0.044	3.25 ± 0.032
x1 = 0.8131	4.22 ± 0.042	3.151 ± 0.031
x1 = 0.8588	4.09 ± 0.04	3.059 ± 0.03
x1 = 0.9056	3.95 ± 0.04	2.955 ± 0.029
x1 = 0.9521	–	2.855 ± 0.028

BrC(Br)(Br)Br + c1ccccc1
298.15 K, 101 kPa
Conditions	viscosity [mPa·s]
x1 = 0.1	0.8303 ± 0.01
x1 = 0.2	1.122 ± 0.014
x1 = 0.3	1.464 ± 0.018
x1 = 0.4	1.839 ± 0.023
x1 = 0.5	2.235 ± 0.028
x1 = 0.6	2.636 ± 0.032
x1 = 0.7	3.026 ± 0.037
x1 = 0.8	3.391 ± 0.042
x1 = 0.9	3.716 ± 0.046

CCCCCCCCCO + c1ccccc1
viscosity [mPa·s], 100 kPa
Conditions	x2 = 0.0841	x2 = 0.1721	x2 = 0.2502	x2 = 0.3634	x2 = 0.4529	x2 = 0.5631	x2 = 0.6508	x2 = 0.7569	x2 = 0.8448	x2 = 0.9503
293.15 K	9.518 ± 0.48	7.891 ± 0.4	6.648 ± 0.34	5.055 ± 0.26	3.95 ± 0.2	2.851 ± 0.14	2.158 ± 0.11	1.469 ± 0.075	1.089 ± 0.056	0.766 ± 0.039
303.15 K	6.477 ± 0.33	5.231 ± 0.26	4.302 ± 0.22	3.268 ± 0.17	2.618 ± 0.13	1.931 ± 0.098	1.474 ± 0.075	1.067 ± 0.054	0.824 ± 0.042	0.628 ± 0.032
313.15 K	4.537 ± 0.23	3.665 ± 0.18	3.011 ± 0.15	2.228 ± 0.11	1.762 ± 0.089	1.327 ± 0.067	1.045 ± 0.053	0.807 ± 0.041	0.675 ± 0.034	0.542 ± 0.028
323.15 K	3.323 ± 0.17	2.677 ± 0.14	2.203 ± 0.11	1.656 ± 0.084	1.318 ± 0.067	1.005 ± 0.051	0.817 ± 0.042	0.662 ± 0.034	0.56 ± 0.029	0.474 ± 0.024

Cc1c[nH]cn1 + c1ccccc1
viscosity [mPa·s], 101 kPa
Conditions	303.15 K	323.15 K
x1 = 0.003559	0.568 ± 0.015	–
x1 = 0.007082	0.584 ± 0.016	–
x1 = 0.02102	0.631 ± 0.017	0.479 ± 0.013
x1 = 0.02167	0.636 ± 0.017	0.48 ± 0.013
x1 = 0.04045	0.729 ± 0.019	0.533 ± 0.014
x1 = 0.04194	0.748 ± 0.02	0.543 ± 0.015
x1 = 0.04196	0.749 ± 0.02	–
x1 = 0.05112	0.796 ± 0.021	0.574 ± 0.015
x1 = 0.08708	1.004 ± 0.027	–
x1 = 0.1079	1.123 ± 0.03	–
x1 = 0.1551	1.496 ± 0.039	–
x1 = 0.2018	1.869 ± 0.049	–
x1 = 0.2491	2.344 ± 0.062	–

CC(N)=O + c1ccncc1
298.15 K, 101 kPa
Conditions	viscosity [mPa·s]
x1 = 0.0512	0.987 ± 0.2
x1 = 0.0742	1.005 ± 0.2
x1 = 0.111	1.088 ± 0.22
x1 = 0.2065	1.381 ± 0.28

O=C(Nc1ccccc1)Nc1ccccc1 + c1ccncc1
298.15 K, 101 kPa
Conditions	viscosity [mPa·s]
x1 = 0.022	1.045 ± 0.21
x1 = 0.0281	1.079 ± 0.22

O=[N+]([O-])c1ccccc1O + c1ccncc1
viscosity [mPa·s], 101 kPa
Conditions	x1 = 0.06767	x1 = 0.1295	x1 = 0.178	x1 = 0.2717	x1 = 0.3836	x1 = 0.4628	x1 = 0.5508	x1 = 0.6529	x1 = 0.7913	x1 = 0.8557
303.15 K	0.943 ± 0.009	1.081 ± 0.011	1.211 ± 0.012	1.5 ± 0.015	1.881 ± 0.019	2.15 ± 0.021	2.45 ± 0.024	2.755 ± 0.027	3.145 ± 0.031	3.331 ± 0.033
313.15 K	0.815 ± 0.008	0.93 ± 0.009	1.03 ± 0.01	1.245 ± 0.012	1.51 ± 0.015	1.711 ± 0.017	1.912 ± 0.019	2.145 ± 0.021	2.411 ± 0.023	2.525 ± 0.025
